Assay results: patent publication US20260345595A1, “NOVEL FLUORENE DERIVATIVE COMPOUND AND USE THEREOF” (JD BIOSCIENCE INC., priority 2022, published 2026)

Tested on: PDHE1α S293
Experiment: In vitro PDH S293 phosphorylation inhibition, Western blot in HEK293 cells
Type: cell-based
Conditions: Homo sapiens, 5 hours
Description: HEK293 cells, which are human embryonic kidney cells, were seeded at a density of 2×10^6 in a 60 mm dish, and cultured for 24 hours. After replacing the medium with a medium comprising 0.5% FBS, the compounds prepared according to Examples 1 to 54 were treated at various concentrations. 5 hours later, the cells were scraped off and collected into a 15 ml conical tube and centrifuged at 1500 rpm for 10 minutes. The supernatant was discarded, the resultant was washed with 1×PBS, and transferred to a 1.5 mL e-tube, followed by centrifugation at 10,000 rpm for 5 minutes. The supernatant was discarded again, a lysis buffer was added, and the cells were lysed on ice for 30 minutes. The cells were vortexed every 10 minutes to completely lyse, and centrifuged again at 10,000 rpm for 15 minutes at 4 °C., and the supernatant was collected. The protein in the supernatant was quantified using BCA technique, and the sample buffer was added to 20 μg of protein and allowed to react at 70 °C. for 5 minutes. The expression of PDHE1α S232, S293, S300, and total PDHE1α proteins was detected by Western blot, and the resulting PDH S293 phosphorylation inhibition is shown in Table 6.

| SMILES | inhibition at 1 µM [%] |
| --- | --- |
| CC(C(=O)NNc1ncc(C(F)(F)F)cc1Cl)n1cc(-c2cc(F)cc3c2-c2ccccc2C3(O)C(F)(F)F)cn1 (centres unmarked) [Compound 32, N′-(3-chloro-5-(trifluoromethyl)pyridin-2-yl)-2-(4-(2-fluoro-9-hydroxy-9-(trifluoromethyl)-9H-fluoren-4-yl)-1H-pyrazol-1-yl)propanehydrazide] | ≥ 50 |
| COc1cc(-c2cnn(C(C)C(=O)NNc3ncc(C(F)(F)F)cc3Cl)c2)c2c(c1)C(O)(C(F)(F)F)c1ccccc1-2 (centres unmarked) [Compound 33, N′-(3-chloro-5-(trifluoromethyl)pyridin-2-yl)-2-(4-(9-hydroxy-2-methoxy-9-(trifluoromethyl)-9H-fluoren-4-yl)-1H-pyrazol-1-yl)propanehydrazide] | ≥ 50 |
